Series [1] can be described thus: Molar enthalpy of transition or fusion. The following applies: Crystal; DSC.
For series [2] the following is noted: Crystal; DTA.

Numbers after ± are expanded uncertainties.

On to `CCCCCCCCCCCCCCCc1cccc(O)c1` [3-pentadecylphenol], for which the “Molar enthalpy of transition or fusion” value in series [1] amounted to 9.1 ± 0.196 kcal/mol. In series [2], the Normal melting temperature came to 49.20 ± 1.1 °C.

These data come from the NIST ThermoML archive (doi:10.1021/je900346t).
